Experimental data reported in US20260217767A1, “NOVEL A4B7 THIOETHER PEPTIDE DIMER ANTAGONISTS” (Protagonist Therapeutics, Inc., priority 2014, published 2026).
*1 amine or outer side, *2 acyl side, *3 side chain or, on linkers, in order; H or OH if unused. Where a SMILES comes first, the peptide text is derived from it. Bridges are numbered along the chain shown (N, C = ends). Roman numbers before positions name the chains, in order. [ ]: non-standard residue; d: D form. Diglycolyl = O=C(COCC(=O)[*:2])[*:1]; NMeR = CN[C@@H](CCCNC(=N)N)C(=O)O; X1 = O=C(c1ccccc1C[*:2])[*:1]; Pen = CC(C)(S)[C@H](N)C(=O)O

Biological target: T1, rh integrin α4β7 (Homo sapiens, UniProt P13612+P26010)
T1 construct: purchased R&D Systems 5397-A30
T1 sequence (P13612 34-977 limits assumed): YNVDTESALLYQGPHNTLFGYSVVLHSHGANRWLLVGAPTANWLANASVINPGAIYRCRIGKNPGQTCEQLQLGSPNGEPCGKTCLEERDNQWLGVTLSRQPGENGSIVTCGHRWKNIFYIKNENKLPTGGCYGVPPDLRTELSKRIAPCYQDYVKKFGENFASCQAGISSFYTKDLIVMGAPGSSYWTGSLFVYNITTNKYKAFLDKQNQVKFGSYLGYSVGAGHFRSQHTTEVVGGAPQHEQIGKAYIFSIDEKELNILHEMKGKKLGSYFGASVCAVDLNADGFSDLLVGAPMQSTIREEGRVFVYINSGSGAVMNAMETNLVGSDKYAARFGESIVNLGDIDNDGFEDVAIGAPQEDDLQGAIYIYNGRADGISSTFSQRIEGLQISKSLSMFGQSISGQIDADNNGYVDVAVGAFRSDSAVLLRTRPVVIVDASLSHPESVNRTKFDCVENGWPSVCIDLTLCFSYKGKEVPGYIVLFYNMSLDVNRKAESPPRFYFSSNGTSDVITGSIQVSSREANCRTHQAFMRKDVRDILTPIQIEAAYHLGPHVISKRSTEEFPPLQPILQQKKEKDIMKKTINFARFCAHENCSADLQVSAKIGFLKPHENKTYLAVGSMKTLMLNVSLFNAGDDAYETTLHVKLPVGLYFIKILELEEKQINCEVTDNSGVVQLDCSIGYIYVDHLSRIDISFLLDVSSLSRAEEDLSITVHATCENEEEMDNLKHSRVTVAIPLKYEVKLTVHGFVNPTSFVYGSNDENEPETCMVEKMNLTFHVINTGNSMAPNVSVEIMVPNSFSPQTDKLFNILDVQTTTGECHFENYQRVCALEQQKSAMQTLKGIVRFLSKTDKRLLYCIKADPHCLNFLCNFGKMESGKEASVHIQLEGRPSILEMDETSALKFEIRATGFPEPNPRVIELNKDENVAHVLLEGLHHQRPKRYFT
T1 sequence (P26010 20-723 limits assumed): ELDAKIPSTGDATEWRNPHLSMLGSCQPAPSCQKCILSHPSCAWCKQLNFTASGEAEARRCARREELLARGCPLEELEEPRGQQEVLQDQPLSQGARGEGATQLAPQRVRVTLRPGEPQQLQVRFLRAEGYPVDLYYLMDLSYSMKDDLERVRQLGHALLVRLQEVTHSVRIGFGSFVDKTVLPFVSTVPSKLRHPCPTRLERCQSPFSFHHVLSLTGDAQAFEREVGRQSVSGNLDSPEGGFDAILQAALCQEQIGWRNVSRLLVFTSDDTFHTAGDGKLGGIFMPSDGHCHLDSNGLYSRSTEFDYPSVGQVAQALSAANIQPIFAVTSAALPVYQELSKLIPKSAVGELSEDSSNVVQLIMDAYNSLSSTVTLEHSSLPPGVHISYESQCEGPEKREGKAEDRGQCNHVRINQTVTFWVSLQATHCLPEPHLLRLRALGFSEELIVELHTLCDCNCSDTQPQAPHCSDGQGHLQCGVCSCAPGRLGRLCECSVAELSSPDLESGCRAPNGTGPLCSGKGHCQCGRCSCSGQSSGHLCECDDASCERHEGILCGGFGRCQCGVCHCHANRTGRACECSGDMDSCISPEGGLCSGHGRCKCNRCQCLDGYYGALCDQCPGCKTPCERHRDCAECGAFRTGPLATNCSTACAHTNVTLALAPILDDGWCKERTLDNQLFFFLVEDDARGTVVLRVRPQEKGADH
Assay: α4β7-MAdCAM Competition ELISA
Format: binding
Conditions: thioether peptide dimers, Table 7; read-out: ELISA A4B7
In short: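 Recombinant human α4β7 captured on nickel-coated plates, then incubated 1 h at room temperature with serially diluted peptides (final top 10 μM) and 10 nM final MAdCAM-1 in Tris pH 7.6 buffer with 1 mM MnCl2 or MgCl2. Bound MAdCAM-1 detected with anti-human IgG1-HRP and TMB, absorbance at 450 nm.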

CC(C)C[C@@H]1NC(=O)[C@H]([C@@H](C)O)NC(=O)[C@H](CC(=O)O)NC(=O)[C@H](CO)NC(=O)[C@H](CCCNC(=N)N)N(C)C(=O)c2ccccc2CSC(C)(C)[C@@H](C(=O)N[C@@H](Cc2c[nH]c3ccccc23)C(=O)N[C@H](CCC(=O)O)C(=O)N[C@H](CCCCNC(=O)COCC(=O)NCCCC[C@@H](NC(=O)[C@@H](CCC(=O)O)NC(=O)[C@H](Cc2c[nH]c3ccccc23)NC(=O)[C@H]2NC(=O)[C@H](CC(C)C)NC(=O)[C@H]([C@@H](C)O)NC(=O)[C@H](CC(=O)O)NC(=O)[C@H](CO)NC(=O)[C@H](CCCNC(=N)N)N(C)C(=O)c3ccccc3CSC2(C)C)C(=O)O)C(=O)O)NC1=O [compound 209] (I: [NMeR]SDTL[Pen]W[dE][dK]-OH / II: [NMeR]SDTL[Pen]W[dE][dK]-OH; linker I:9-II:9 via Diglycolyl; linker I:N-I:6, II:N-II:6 via X1)
IC50: < 25 nM
